This data set in a line: UV-metric pKa measurement with methanol cosolvent. The following applies: Yasuda-Shedlovsky extrapolation to 0% methanol from psKa in ISA methanol:water mixtures, 25.0 ± 0.5 °C, ~150 mM KCl, mean ± SEM of three replicates. Type of data set: physicochemical.

`FC(F)(F)c1cccc(Nc2ncnc3ccccc23)c1` [SM02]: the pKa1 was 5.03 ± 0.01. Next, `COc1cccc(Nc2ncnc3ccccc23)c1.Cl` [SM09]: 5.37 ± 0.01.
